Measured values as given in patent US20250287948A1, “TOBACCO ALKALOID INSECT REPELLENT IN PLANTS” (Philip Morris Products S.A., priority 2022, published 2025).
Several values for one entry are separate records, joined by “and”; a condition that tells them apart may be missing. Equal values may be shown once.

Experiments:
adult whitefly [1] = test: Tube test assay: repelling effect with whitefly introduced at later infestation time points (Example 4); assay type: in vivo; conditions: concentration 5 percent; for repelling effect: remaining 5 days (up to 123 hours) of the evaluation period
Protocol: The repelling effect of anatabine on adult whitefly was evaluated in a further comparative study which introduced additional whitefly and freshly treated leaves at set evaluation time points. For the purpose of the study, a tube test assay was performed using solutions of anatabine and DEET at a concentration of 5 percent together with a placebo solution, as shown in Table 10. The placebo control defines the baseline, against which the repelling effect is then calculated.
Whitefly were introduced into the tube at infestation time points: 48, 72 and 120 hours and the repelling effect was measured after 3 hours at evaluation time points: 51, 75 and 123 hours.

adult whitefly [2] = test: Tube test assay: repelling effect on adult whitefly, treated leaf disks (Examples 1-3); assay type: in vivo
Protocol: For the purpose of the study, a tube test assay was performed using solutions of anatabine and DEET prepared according to Table 1.
For the purpose of the study, leaf disks were dipped for a total time of 30 seconds into the prepared solutions and left to dry for 10 minutes at room temperature. Subsequently, the leaf disks were deposited at the bottom of glass tubes and a minimum of 20 adult whiteflies were introduced into the tubes. […] The repelling effect of both anatabine and DEET is shown in Table 2 and was calculated by counting the number of whitefly landing on a leaf compared to the placebo control, using the Abbott's formula: […]
The placebo control defines the baseline, against which the repelling effect is then calculated according to the formula above.
For the purpose of the study, a tube test assay was performed using solutions of anatabine at three different concentrations prepared according to Table 3.
The placebo control defines the baseline, against which the repelling effect is then calculated.
For the purpose of the study, leaf disks were dipped for a total time of 30 seconds into the prepared solutions and left to dry for 10 minutes at room temperature. Subsequently, the leaf disks were deposited at the bottom of glass tubes and a minimum of 20 adult whiteflies were introduced into the tubes. The repelling effect of anatabine at three different concentrations was measured at different time points: after 1 hour, 3 hours, 6 hours. the repelling effect of anatabine at different concentrations is shown in Table 4.
A concentration of 5 percent was chosen based on the results of Example 2. […] In the placebo control the leaves were treated with solvent only. The placebo control defines the baseline, against which the repelling effect is then calculated.
(§1) For the purpose of the study, leaf disks were dipped for a total time of 30 seconds into the prepared solutions and left dry for 10 minutes at room temperature. Subsequently, the leaf disks were deposited at the bottom of glass tubes and a minimum of 20 adult whiteflies were introduced into the tubes.

leaves = test: Damage to leaves caused by treatment
Protocol: For the purpose of the study, leaf disks were dipped for a total time of 30 seconds into the prepared solutions and left to dry for 10 minutes at room temperature. Subsequently, the leaf disks were deposited at the bottom of glass tubes and a minimum of 20 adult whiteflies were introduced into the tubes.
as §1

whitefly [3] = test: Whitefly mortality on treated leaves; assay type: in vivo; conditions: concentration 5 percent
Protocol: as §1
The study also assessed the whitefly mortality rate over the duration of the evaluation period. […]

whitefly [4] = test: Presence of eggs on treated leaves, evaluated visually; assay type: in vivo; conditions: concentration 5 percent; evaluation period of up to 6 days (144 hours)
Protocol: In addition, the presence and amount of eggs on the leaves after a period of 48 hours was evaluated visually and the results are shown in Table 7.
The presence of eggs was visually monitored 24 hours after each infestation time point.

[5] = infestation time 48 hour, evaluation time 51 hour
[6] = infestation time 72 hour, evaluation time 75 hour
[7] = infestation time 120 hour, evaluation time 123 hour
[8] = concentration 1.0 percent, evaluation time 0 hour
[9] = concentration 1.0 percent, evaluation time 1 hour
[10] = concentration 1.0 percent, evaluation time 3 hour
[11] = concentration 5 percent, evaluation time 0 hour (Example 3)
[12] = concentration 5 percent, evaluation time 6 hour (Example 3)
[13] = concentration 5 percent, evaluation time 24 hour (Example 3)
[14] = concentration 5 percent, evaluation time 48 hour (Example 3)

Structure (SMILES) | Mean Repellence (adult whitefly [1]; [5]) [%] | Mean Repellence (adult whitefly [1]; [6]) [%] | Mean Repellence (adult whitefly [1]; [7]) [%] | repelling effect (adult whitefly [1]) | Mean Repellence (adult whitefly [2]; [8]) [%] | Mean Repellence (adult whitefly [2]; [9]) [%] | Mean Repellence (adult whitefly [2]; [10]) [%] | Mean Repellence (adult whitefly [2]; [11]) [%] | Mean Repellence (adult whitefly [2]; [12]) [%] | Mean Repellence (adult whitefly [2]; [13]) [%] | Mean Repellence (adult whitefly [2]; [14]) | Mean Mortality (whitefly [3]; evaluation time 0 hour) [%] | Mean Mortality (whitefly [3]; evaluation time 6 hour) [%] | Mean Mortality (whitefly [3]; evaluation time 24 hour) [%] | Mean Mortality (whitefly [3]; evaluation time 48 hour) [%] | further results
C1=CCC(c2cccnc2)NC1 (stereo not drawn) [Anatabine, anatabine] | 100 | 85.3 | 82.2 | more than 80% | 81.3 | 90.0 | 96.0 | 100 | 100 | 100 | 100% | 0.0 | 7.6 | 41.3 | 84.6 | Mean Repellence (adult whitefly [2]; concentration 1.0 percent, evaluation time 6 hour): 88.9%; repelling effect (adult whitefly [2]; concentration 1.0 percent, throughout the evaluation period of 6 hours): over 80%; Mean Repellence (adult whitefly [2]; concentration 2 percent, evaluation time 3 hour): 100%; Mean Repellence (adult whitefly [2]; concentration 2 percent, evaluation time 6 hour): 100%; Mean Repellence (adult whitefly [2]; concentration 5 percent, evaluation time 3 hour (Example 2)): 100%; Mean Repellence (adult whitefly [2]; concentration 5 percent, evaluation time 6 hour (Example 2)): 100%; repelling effect (adult whitefly [2]; concentration 5 percent, throughout the evaluation period of 48 hours): 100%; Mean Repellence (adult whitefly [2]; concentration 10 percent, evaluation time 3 hour): 100%; Mean Repellence (adult whitefly [2]; concentration 10 percent, evaluation time 6 hour): 100%; repelling effect (adult whitefly [2]; regardless of the concentration (2, 5, 10 percent), 3 and 6 hours): 100%; Leaves damage (leaves; concentration 5 percent, evaluation time 48 hour): did not cause any damage; damage to leaves (leaves; concentrations of 5 percent or less (Example 2)): not damaged; number of eggs observed on the leaves (whitefly [4]): remained low
CCN(CC)C(=O)c1cccc(C)c1 [DEET, N,N-Diethyl-meta-toluamide, reference compound] | 54.1 | 55.9 | 48.9 | below 50% | 87.5 | 90.0 | 68.0 | 100 | 100 | 94.9 | 93% and 93.4% | 0.0 | 1.4 | 50.0 | 80.3 | drop of efficacy (adult whitefly [1]; after the first 48 hours): ~50%; drop of the repelling effect (adult whitefly [2]; concentration 1.0 percent, after 6 hours): ~40%
COC(=O)c1ccccc1 [Methyl Benzoate, methyl benzoate, reference compound] |  |  |  |  |  |  |  | 100 | 47.2 | 76.8 | 76.5% | 0.0 | 1.4 | 47.6 | 77.8 | drop of the repelling effect (adult whitefly [2]; concentration 5 percent, by the end of the 48 hours evaluation period): ~25%
